Laboratory results from publication PMC7435711, “Synthesis and Pharmacological Effects of Diosgenin–Betulinic Acid Conjugates” (Molecules, 2020).
Like-named read-outs stand apart in the source and are kept apart here.

What was measured:
[1] = tested on: CEM, MCF7, HeLa, HCT 116 cancer cell lines and BJ fibroblasts
Description: (§1) Doxorubicin was used as a positive control.
(§2) The screening cell lines, T-lymphoblastic leukemia (CEM), cervical carcinoma (HeLa), breast carcinoma (MCF7), and human foreskin fibroblasts (BJ) were obtained from the American Type Culture Collection (Manassas, VA, USA). Cells were cultured in DMEM (Dulbecco’s Modified Eagle Medium, Sigma Aldrich, Darmstadt, Germany). Media used were supplemented with 10% fetal bovine serum, 2 mM L-glutamine, and 1% penicillin-streptomycin (all from Sigma Aldrich, Darmstadt, Germany). The cell lines were maintained under standard cell culture conditions at 37 °C and 5% CO2 in humid environment. Cells were subcultured twice or three times a week using the standard trypsinization procedure.

[2] = tested on: human cervical cancer (HeLa) cells; assay: Cytotoxicity screening test, HeLa; settings: 72 h, read-out: Cytotoxicity IC50, HeLa
Description: as §1, §2

in vitro = settings: human
Description: as §1, §2

[3] = tested on: human T-lymphoblastic leukemia (CEM) cells; assay: Cytotoxicity screening test, CEM; settings: CCRF-CEM, 72 h, read-out: Cytotoxicity IC50, CEM
Description: as §1, §2

[4] = tested on: human breast adenocarcinoma (MCF7) cells; assay: Cytotoxicity screening test, MCF7; settings: MCF7, 72 h, read-out: Cytotoxicity IC50, MCF7
Description: as §1, §2

[5] = tested on: human colon carcinoma (HCT 116) cells; assay: Cytotoxicity screening test, HCT 116; settings: HCT-116, 72 h, read-out: Cytotoxicity IC50, HCT 116
[6] = tested on: CEM, MCF7, HeLa, HCT 116 cancer cell lines and BJ fibroblasts; assay: Cytotoxicity screening tests, summary statements over the cell line panel; settings: for IC50: Homo sapiens, 72 h, read-out: IC50 against all tested cell lines
Description: as §1, §2

[7] = Cytotoxicity screening test, BJ reference cells; settings: human, BJ normal foreskin fibroblasts
Description: as §1, §2

Structure (SMILES): C=C(C)[C@@H]1CC[C@]2(C(=O)OCc3ccccc3)CC[C@]3(C)[C@H](CC[C@@H]4[C@@]5(C)CC[C@H](O)C(C)(C)[C@@H]5CC[C@]43C)[C@@H]12 [Compound 3, Benzyl (3β)-3-hydroxylup-20(29)-en-28-oate]
- Cytotoxicity (in words) [1]: no cytotoxicity
- IC50 [2]: > 50 µM
- IC50 at 72 h (in vitro): > 50 µM
- IC50 [3]: > 50 µM
- IC50 [4]: > 50 µM
- IC50 [5]: > 50 µM
- IC50 [6]: > 50 µM

Structure (SMILES): C=C(C)[C@@H]1CC[C@]2(C(=O)O)CC[C@]3(C)[C@H](CC[C@@H]4[C@@]5(C)CC[C@H](OCc6cn(CCCCC(=O)O)nn6)C(C)(C)[C@@H]5CC[C@]43C)[C@@H]12 [Compound 6, (3β)-3-{[1-(4-Carboxybutyl)-1H-1,2,3-triazol-4-yl]methoxy}lup-20(29)-en-28-oic Acid]
- Cytotoxicity (in words) [1]: inactive
- IC50 [2]: > 50 µM
- IC50 at 72 h (in vitro): > 50 µM
- IC50 [3]: > 50 µM
- IC50 [4]: > 50 µM
- IC50 [5]: > 50 µM

Structure (SMILES): C=C(C)[C@@H]1CC[C@]2(C(=O)OCc3ccccc3)CC[C@]3(C)[C@H](CC[C@@H]4[C@@]5(C)CC[C@H](OCc6cn(CCCCC(=O)O)nn6)C(C)(C)[C@@H]5CC[C@]43C)[C@@H]12 [Compound 5, 5-[4-({[(3β)-28-(Benzyloxy)-28-oxolup-20(29)-en-3-yl]oxy}-methyl)-1H-1,2,3-triazol-1-yl]pentanoic acid]
- IC50 [2]: 20.3 ± 4.4 µM
- IC50 at 72 h (in vitro): > 50 µM
- IC50 [3]: 15.8 ± 0.6 µM
- IC50 [4]: 49.5 ± 0.7 µM
- IC50 [5]: 19.4 ± 2.1 µM

Structure (SMILES): C#CCO[C@H]1CC[C@]2(C)[C@H]3CC[C@@H]4[C@H]5[C@H](C(=C)C)CC[C@]5(C(=O)OCc5ccccc5)CC[C@@]4(C)[C@]3(C)CC[C@H]2C1(C)C [Compound 4, Benzyl (3β)-3-(prop-2-yn-1-yloxy)lup-20(29)-en-28-oate]
- Cytotoxicity (in words) [1]: no cytotoxicity
- IC50 [2]: > 50 µM
- IC50 at 72 h (in vitro): > 50 µM
- IC50 [3]: > 50 µM
- IC50 [4]: > 50 µM
- IC50 [5]: > 50 µM
- IC50 [6]: > 50 µM

Structure (SMILES): C=C(C)[C@@H]1CC[C@]2(C(=O)O)CC[C@]3(C)[C@H](CC[C@@H]4[C@@]5(C)CC[C@H](OCc6cn(CCCCC(=O)O[C@H]7CC[C@@]8(C)C(=CC[C@H]9[C@@H]%10C[C@@H]%11O[C@]%12(CC[C@@H](C)CO%12)[C@@H](C)[C@@H]%11[C@@]%10(C)CC[C@@H]98)C7)nn6)C(C)(C)[C@@H]5CC[C@]43C)[C@@H]12 [Compound 8, (3β)-3-[(1-{5-Oxo-5-[(3β,25R)-spirost-5-en-3-yloxy]pentyl}-1H-1,2,3-triazol-4-yl]methoxy}lup-20(29)-en-28-oic Acid]
- IC50 [2]: > 50 µM
- IC50 at 72 h (in vitro): > 50 µM
- IC50 [3]: > 50 µM
- IC50 [4]: > 50 µM
- IC50 [5]: > 50 µM

Structure (SMILES): C=C(C)[C@@H]1CC[C@]2(C(=O)O)CC[C@]3(C)[C@H](CC[C@@H]4[C@@]5(C)CC[C@H](O)C(C)(C)[C@@H]5CC[C@]43C)[C@@H]12 [Compound 2, 3β-hydroxylup-20(29)-en-28-oic acid, reference compound]
- IC50 [2]: > 50 µM
- IC50 at 72 h [7]: > 50 µM
- IC50 [3]: > 50 µM
- IC50 [4]: > 50 µM
- IC50 [5]: > 50 µM
- IC50 [6]: > 50 µM
- Cytotoxicity (in words) ([6]; summary over the tested cell lines): no cytotoxicity

Structure (SMILES): COc1cccc2c1C(=O)c1c(O)c3c(c(O)c1C2=O)C[C@@](O)(C(=O)CO)C[C@@H]3O[C@H]1C[C@H](N)[C@H](O)[C@H](C)O1 [Doxorubicin, reference compound]
- IC50 at 72 h [7]: 0.278 ± 0.036 µM
- IC50 [5]: 0.524 ± 0.177 µM

Structure (SMILES): C[C@@H]1CC[C@@]2(OC1)O[C@H]1C[C@H]3[C@@H]4CC=C5C[C@@H](O)CC[C@]5(C)[C@H]4CC[C@]3(C)[C@H]1[C@@H]2C [Compound 1, (3β,25R)-spirost-5-en-3-ol, reference compound]
- IC50 [2]: > 50 µM
- IC50 at 72 h [7]: > 50 µM
- IC50 [3]: > 50 µM
- IC50 [4]: > 50 µM
- IC50 [5]: > 50 µM
- IC50 [6]: > 50 µM

Structure (SMILES): C=C(C)[C@@H]1CC[C@]2(C(=O)OCc3ccccc3)CC[C@]3(C)[C@H](CC[C@@H]4[C@@]5(C)CC[C@H](OCc6cn(CCCCC(=O)O[C@H]7CC[C@@]8(C)C(=CC[C@H]9[C@@H]%10C[C@@H]%11O[C@]%12(CC[C@@H](C)CO%12)[C@@H](C)[C@@H]%11[C@@]%10(C)CC[C@@H]98)C7)nn6)C(C)(C)[C@@H]5CC[C@]43C)[C@@H]12 [Compound 7, Benzyl (3β)-3-[(1-{5-oxo-5-[(3β,25R)-spirost-5-en-3-yloxy]pentyl}-1H-1,2,3-triazol-4-yl)methoxy]lup-20(29)-en-28-oate]
- Cytotoxicity (in words) [1]: medium to weak multifarious cytotoxicity
- IC50 [2]: > 50 µM
- IC50 at 72 h (in vitro): 46.2 ± 2.8 µM
- IC50 [3]: 6.5 ± 1.1 µM
- IC50 [4]: > 50 µM
- IC50 [5]: > 50 µM
